The values that follow come from PMC10094510, “Novel Cannabinoid Receptor 2 (CB2) Low Lipophilicity Agonists Produce Distinct cAMP and Arrestin Signalling Kinetics without Bias” (International Journal of Molecular Sciences, 2023).

The target in one test is T1, human CB2 (Homo sapiens, UniProt P34972, Q63R).
T1 construct: HA (N); 3TCS (N); expressed in transfected cells; host or cells: HEK-293S cells, transient transfection (PEI max)
The test is described as follows: Real-time BRET β-arrestin-2 plasma membrane translocation, HEK-293S cells transfected with human CB2. In kind it is cell-based. The following applies: mean over 20 min stimulation. The procedure: HEK-293S cells (HEK-S; generously provided by Professor David Poyner, Aston Research Centre, RRID:CVCL_A784 [48]) were maintained in T75 flasks (Corning-Costar) with Dulbecco’s Modified Eagle’s Medium high glucose with phenol red, L-glutamine and sodium pyruvate (DMEM; Cytiva SH30243), and 8% foetal bovine serum (FBS; NZ-origin, Moregate Biotech) at 37 °C in a humidified atmosphere containing 5% CO2.
Poly-D-Lysine (PDL) (Sigma-Aldrich) at 0.05 mg/mL in PBS was incubated in wells of 96-well Solid White Flat Bottom Polystyrene TC-treated Microplate (Corning-Costar) at 37 °C for 1 h, then washed with PBS prior to seeding and transfection. Cells were seeded at 45,000 cells/well in DMEM supplemented with 12% FBS.
Plasmids encoding human CB2 (HA-3TCS-hCB2 63R pcDNA5/FRT; 28.5 ng per well) or no receptor (pcDNA5/FRT/CAT; 23.5 ng per well; Thermo Fisher Scientific, Waltham, MA, USA), and either His-CAMYEL (in pcDNA3L; 24 ng per well; ATCC MBA-277; previously described in [49]), or a mix of Rluc8-hβ-arrestin2-Sp1 (in pcDNA3; 0.5 ng per well; previously described in [19]) and Mem-linker-Citrine-SH3 (in pcDNA3; 20 ng per well; previously described in [19, 50]) were diluted in DMEM. Diluted DNA was then co-incubated with polyethyleneimine max (PEI max; Polysciences, Warrington, PA, USA) (Total DNA:PEI ratio of 1:7.5 or 1:6.7 for cAMP or β-arrestin-2 experiments, respectively) in DMEM for 1 h at room temperature (~19–21 °C). These transfection mixes were then added to plated cells, resulting in a final concentration of 8% FBS. Plates were incubated for ~48 h before assaying.
The protocol for measuring levels of cellular cAMP via real-time BRET biosensor (CAMYEL) is adapted from previous publications. In all cAMP experiments, forskolin (Tocris Bioscience, Bristol, UK) was used to stimulate the activation of adenylyl cyclase to raise intracellular cAMP levels. Vehicle (DMSO) was maintained at an equivalent concentration across all conditions. Assays were carried out in technical duplicate. Then, ~48 h post-transfection, plating media was aspirated, and wells were washed with H+B, consisting of HBSS (Life Technologies) and 1 mg/mL BSA (ICPbio). H+B was then added to the wells to initiate a 30 min serum starve at 37 °C. Post-serum starve, coelenterazine h (final concentration 5 μM, NanoLight Technologies, Norman, OK, USA, #301) was added to the wells, and a 5 min pre-reading was conducted using the LUMIstar® Omega luminometer (Rluc and YFP emissions detected at 460 nm and 535 nm, respectively; BMG Labtech, Ortenberg, Germany). Next, forskolin (final concentration 5 μM) was added to all wells (except vehicle-only wells which received DMSO), and plate reading resumed for 5 min. Lastly, CB2 compounds of interest with forskolin, vehicle with forskolin, or vehicle without forskolin, were added to their respective wells, and a final 20 min read was conducted. All compounds and reagents were diluted in H+B prior to addition to the plate. For β-arrestin-2 recruitment assays, an equivalent procedure was followed except no forskolin was included in the assay stimulations.
BRET ratios were calculated by dividing YFP emissions by Rluc emissions, then for the cAMP assay, normalised to the mean of baseline ratio reads (where only coelenterazine h was present) to eliminate any variability present prior to drug addiction. An increase in BRET ratio indicated a decrease in cAMP levels or increase in β-arrestin-2 recruitment. Lowess smoothing (GraphPad Prism) was applied to individual technical replicates within an assay. Concentration response curves for the mean of technical replicates (CRC; “log(agonist) vs. response (three parameters)” nonlinear regression curve model, Hill slope constrained to 1) were drawn for the mean ratios over 20 min stimulation or individual time-points.

The test system of the next test is atopic dermatitis. Also noted: method as in PMID 22444677, PMID 25721168. The following applies: informally reported; cited from earlier work.
In another test the target is T2, human CB1 (Homo sapiens, UniProt P21554).
T2 construct: pplss (N); 3HA (N); expressed in transfected cells
The test is described as follows: Competition radioligand binding assay ([3H]-CP55,940), hCB1 membranes. The following applies: 0.75 nM [3H]-CP55,940; estimates, incomplete displacement at maximum concentration; read-out: CB1 pKi (±SEM) (converted). The procedure: Preparation of hCB1- and hCB2-membranes from a HEK pplss-3HA-hCB1 cell line and HEK Flp-in HA-3TCS-hCB2 63R cell line, respectively, followed the protocol described previously. […] The concentration of DMSO was kept equivalent across all test conditions. All dilutions were dispensed into a 96-well, polypropylene V-bottom plate (Gene Era Biotech, Hangzhou, China). […] All conditions were carried out in technical duplicate. The plate was then sealed, tap-mixed, then incubated at 30 °C for 1 h. A total of 50 µL of 0.1% PEI (Sigma-Aldrich, St. Louis, MI, USA) in MQ water was added to each well of a 96-well GF/C harvest plate (Perkin Elmer) 1 h prior to the harvest. When the incubation finished, vacuum (~5 mmHg) was applied to the harvest plate and wells were washed (50 mM HEPES pH 7.4, 500 mM NaCl, 1 mg/mL BSA, MQ water, ice cold). Subsequently, the contents of the V-bottom plate were transferred to corresponding wells in the harvest plate, wash buffer was used to wash the remaining contents of the V-bottom wells before transferring this to the harvest plate, then the harvest plate was washed an additional three times. The plate was dried for ~24 h at 24 °C. To prepare for reading, the bottom of the plate was sealed, each well received 50 µL of Irgasafe Plus scintillation fluid (Perkin Elmer), followed by sealing the top of the plate. Plates were read in a Wallac MicroBeta® TriLux Liquid Scintillation Counter (Perkin Elmer) with a read time of 2 min/well.
GraphPad Prism (v8.0.2; GraphPad Software, San Diego, CA, USA) was used to fit nonlinear regression curves (One site—Fit Ki) to the corrected counts per minutes (CCPM) of each displacer to determine their pKi (negative log Ki). […] Mean and SEM of pKi values were calculated from independent experiments. […] CB2 selectivity was calculated as […].

T1 sequence (P34972 whole entry Q63R): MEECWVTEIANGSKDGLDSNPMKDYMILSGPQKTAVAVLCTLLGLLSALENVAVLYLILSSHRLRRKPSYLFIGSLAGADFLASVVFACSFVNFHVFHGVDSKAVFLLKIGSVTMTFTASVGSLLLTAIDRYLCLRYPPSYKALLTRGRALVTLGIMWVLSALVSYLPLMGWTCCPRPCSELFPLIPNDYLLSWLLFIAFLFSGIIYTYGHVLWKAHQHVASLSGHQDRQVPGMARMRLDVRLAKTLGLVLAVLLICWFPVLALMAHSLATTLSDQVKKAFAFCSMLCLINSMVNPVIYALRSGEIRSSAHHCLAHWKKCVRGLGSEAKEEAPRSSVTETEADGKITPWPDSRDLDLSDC
T2 sequence (P21554 whole entry): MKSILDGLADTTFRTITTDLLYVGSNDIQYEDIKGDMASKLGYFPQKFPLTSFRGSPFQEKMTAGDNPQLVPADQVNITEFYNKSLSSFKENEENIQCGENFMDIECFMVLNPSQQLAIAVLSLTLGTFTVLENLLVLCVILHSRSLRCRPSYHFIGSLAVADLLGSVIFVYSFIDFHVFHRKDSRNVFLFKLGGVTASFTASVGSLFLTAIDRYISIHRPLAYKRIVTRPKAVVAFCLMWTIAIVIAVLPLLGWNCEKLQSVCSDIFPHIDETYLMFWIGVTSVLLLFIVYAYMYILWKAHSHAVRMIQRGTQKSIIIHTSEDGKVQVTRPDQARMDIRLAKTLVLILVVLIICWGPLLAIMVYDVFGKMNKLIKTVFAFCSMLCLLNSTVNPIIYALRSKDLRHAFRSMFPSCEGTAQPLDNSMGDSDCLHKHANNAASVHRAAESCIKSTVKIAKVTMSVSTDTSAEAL

In the case of `CCc1c(C)cc(C(=O)NC2(C(=O)O)CCCCC2)c(=O)n1Cc1ccc(F)cc1` [UOSS77, reference compound], the EC50 on human CB2 (mean ± SEM, read-out: β-arrestin-2 translocation pEC50 (converted)) is 0.126 µM. For the same compound, the “β-arrestin-2 translocation ΔEmax (% increase above V)” value on human CB2 (normalised to vehicle 100%) is 11.1 ± 0.7%. The “efficacy in Phase 2 clinical trial for atopic dermatitis” value in the test on atopic dermatitis is listed as “ineffective”. The Ki at human CB1 was around 15.8 µM.
